Assay results as given in ChEMBL document CHEMBL5724914, “Linking interpersonal differences in gut microbiota composition and drug biotransformation activity” (2024).

Experiments:
[1] = (§1) The drug is tested on Z-007 corresponding to rat gut metagenome with ENA study accession number: PRJEB37062 and ENA sample accession number: ERS12561807 for biotransformation under anaerobic condition. The drug concentrations were measured over 9 timepoints collected between 0 and 24 hours of incubation by liquid-chromatography-coupled mass spectrometry (LC–MS); conditions: 2 µM
[2] = human gut metagenome, 24 h, 2 µM
[3] = human gut metagenome, 24 h, 2 µM; remark: listed apart in the source
[4] = human gut metagenome, 24 h, 2 µM; remark: listed apart in the source
[5] = as §1, with “Z-014” for “Z-007”, “ERS12561814” for “ERS12561807”; conditions: 2 µM
[6] = as §1, with “on WLS-310” for “on Z-007”, “to human” for “to rat”, “number: ERS12561785” for “number: ERS12561807”; conditions: 2 µM
[7] = as §1, with “on WLS-007” for “on Z-007”, “to human” for “to rat”, “number: ERS12561742” for “number: ERS12561807”; conditions: 2 µM
[8] = as §1, with “on WLS-038” for “on Z-007”, “to human” for “to rat”, “number: ERS12561745” for “number: ERS12561807”; conditions: 2 µM
[9] = as §1, with “on Z-025” for “on Z-007”, “to rabbit” for “to rat”, “number: ERS12561824” for “number: ERS12561807”; conditions: 2 µM
[10] = as §1, with “on Z-001” for “on Z-007”, “to mouse” for “to rat”, “number: ERS12561801” for “number: ERS12561807”; conditions: 2 µM
[11] = as §1, with “on WLS-240” for “on Z-007”, “to human” for “to rat”, “number: ERS12561773” for “number: ERS12561807”; conditions: 2 µM
[12] = human gut metagenome, 24 h, 2 µM; remark: listed apart in the source
[13] = human gut metagenome, 24 h, 2 µM; remark: listed apart in the source
[14] = human gut metagenome, 24 h, 2 µM; remark: listed apart in the source
[15] = human gut metagenome, 24 h, 2 µM; remark: listed apart in the source
[16] = as §1, with “Z-027” for “Z-007”, “to” for “to rat gut”, “ERS12561826” for “ERS12561807”; conditions: 2 µM
[17] = human gut metagenome, 24 h, 2 µM; remark: listed apart in the source
[18] = human gut metagenome, 24 h, 2 µM; remark: listed apart in the source
[19] = as §1, with “on Z-011” for “on Z-007”, “to mouse” for “to rat”, “number: ERS12561811” for “number: ERS12561807”; conditions: 2 µM
[20] = as §1, with “Z-012” for “Z-007”, “to” for “to rat gut”, “ERS12561812” for “ERS12561807”; conditions: 2 µM
Further: call rule not given here.

Structure (SMILES) | Bacterial Biotransformation [1] | Bacterial Biotransformation [2] | Bacterial Biotransformation [3] | Bacterial Biotransformation [4] | Bacterial Biotransformation [5] | Bacterial Biotransformation [6] | Bacterial Biotransformation [7] | Bacterial Biotransformation [8] | Bacterial Biotransformation [9] | Bacterial Biotransformation [10] | Bacterial Biotransformation [11] | Bacterial Biotransformation [12] | Bacterial Biotransformation [13] | Bacterial Biotransformation [14] | Bacterial Biotransformation [15] | Bacterial Biotransformation [16] | Bacterial Biotransformation [17] | Bacterial Biotransformation [18] | Bacterial Biotransformation [19] | Bacterial Biotransformation [20]
CC(C)NCC(O)COc1ccc(COCCOC(C)C)cc1.CC(C)NCC(O)COc1ccc(COCCOC(C)C)cc1.O=C(O)/C=C/C(=O)O (stereo not given) [BISOPROLOL FUMARATE] | Compound NOT metabolized | Compound metabolized | Compound NOT metabolized | Compound metabolized | Compound NOT metabolized | Compound NOT metabolized | Compound metabolized | Compound NOT metabolized | Compound metabolized | Compound metabolized | Compound metabolized | Compound metabolized | Compound NOT metabolized | Compound metabolized | Compound NOT metabolized | Compound NOT metabolized | Compound NOT metabolized | Compound NOT metabolized | Compound metabolized | Compound NOT metabolized
NC(CO)(CO)CO.O=C(c1ccccc1)c1ccc2n1CCC2C(=O)O (stereo not given) [KETOROLAC TROMETHAMINE] | Compound NOT metabolized | Compound metabolized | Compound metabolized | Compound metabolized | Compound NOT metabolized | Compound metabolized | Compound metabolized | Compound metabolized | Compound NOT metabolized | Compound NOT metabolized | Compound metabolized | Compound metabolized | Compound metabolized | Compound metabolized | Compound metabolized | Compound metabolized | Compound metabolized | Compound metabolized | Compound NOT metabolized | Compound NOT metabolized
COc1cc2c(c(OC)c1OC)-c1ccc(OC)c(=O)cc1[C@@H](NC(C)=O)CC2 [COLCHICINE] | Compound NOT metabolized | Compound NOT metabolized | Compound metabolized | Compound metabolized | Compound NOT metabolized | Compound metabolized | Compound metabolized | Compound NOT metabolized | Compound NOT metabolized | Compound NOT metabolized | Compound metabolized | Compound metabolized | Compound metabolized | Compound metabolized | Compound metabolized | Compound NOT metabolized | Compound metabolized | Compound metabolized | Compound NOT metabolized | Compound NOT metabolized
C=CCc1ccccc1OCC(O)CNC(C)C (stereo not given) [ALPRENOLOL] | Compound NOT metabolized | Compound NOT metabolized | Compound metabolized | Compound NOT metabolized | Compound NOT metabolized | Compound NOT metabolized | Compound NOT metabolized | Compound NOT metabolized | Compound metabolized | Compound NOT metabolized | Compound metabolized | Compound metabolized | Compound metabolized | Compound metabolized | Compound NOT metabolized | Compound metabolized | Compound metabolized | Compound NOT metabolized | Compound NOT metabolized | Compound NOT metabolized
CCOC(=O)[C@H](CCc1ccccc1)N[C@H]1CCc2ccccc2N(CC(=O)O)C1=O [BENAZEPRIL] | Compound metabolized | Compound metabolized | Compound metabolized | Compound metabolized | Compound NOT metabolized | Compound metabolized | Compound metabolized | Compound metabolized | Compound NOT metabolized | Compound metabolized | Compound metabolized | Compound metabolized | Compound metabolized | Compound metabolized | Compound metabolized | Compound NOT metabolized | Compound metabolized | Compound metabolized | Compound metabolized | Compound metabolized
CN1C(=O)CC(C)(c2ccccc2)C1=O (stereo not given) [METHSUXIMIDE] | Compound NOT metabolized | Compound NOT metabolized | Compound NOT metabolized | Compound NOT metabolized | Compound NOT metabolized | Compound NOT metabolized | Compound NOT metabolized | Compound NOT metabolized | Compound NOT metabolized | Compound NOT metabolized | Compound metabolized | Compound metabolized | Compound NOT metabolized | Compound metabolized | Compound NOT metabolized | Compound NOT metabolized | Compound NOT metabolized | Compound metabolized | Compound NOT metabolized | Compound NOT metabolized
CN1CCN(C2=Nc3cc(Cl)ccc3Nc3ccccc32)CC1 [CLOZAPINE] | Compound NOT metabolized | Compound NOT metabolized | Compound metabolized | Compound NOT metabolized | Compound NOT metabolized | Compound metabolized | Compound NOT metabolized | Compound NOT metabolized | Compound NOT metabolized | Compound NOT metabolized | Compound metabolized | Compound metabolized | Compound NOT metabolized | Compound metabolized | Compound NOT metabolized | Compound NOT metabolized | Compound NOT metabolized | Compound metabolized | Compound NOT metabolized | Compound NOT metabolized
Clc1ccc(Cn2c(CN3CCCC3)nc3ccccc32)cc1 [CLEMIZOLE] | Compound NOT metabolized | Compound metabolized | Compound NOT metabolized | Compound NOT metabolized | Compound NOT metabolized | Compound metabolized | Compound metabolized | Compound metabolized | Compound metabolized | Compound metabolized | Compound metabolized | Compound metabolized | Compound metabolized | Compound metabolized | Compound NOT metabolized | Compound NOT metabolized | Compound metabolized | Compound NOT metabolized | Compound NOT metabolized | Compound NOT metabolized
